Reference: patent publication US20250186321A1, “FORMULATION USING AMINO ACID AND CARBOXYLIC ACID, ORGANIC SALT, AND COMPOSITION COMPRISING SAME AND USE THEREOF” (MIYOSHI OIL & FAT CO., LTD., priority 2021, published 2025)

Assay: Appearance of formulation (state at 25° C.)
Assay type: physicochemical
Settings: Tables 1C-1 to 1D; compounding molar ratio (Component (A):Component (B)) 1:1
Method: Formulations 1 to 427 shown in Tables 1A to 1D were prepared by the above-described method using the components (A) and (B) at the compounding molar ratios shown in the tables, and their states at 25° C. were observed.

SMILES	state at 25° C.
CSCC[C@H](N)C(=O)O.O=C(O)c1ccccc1 [Formulation 337]	Solid
CSCC[C@H](N)C(=O)O.O=C1O[C@H]([C@@H](O)CO)C(O)=C1O [Formulation 338]	Solid
CSCC[C@H](N)C(=O)O.O=C1O[C@H]([C@H](O)CO)C(O)=C1O [Formulation 339]	Solid
O=C(O)[C@@H]1CCCN1.O=CO [Formulation 340]	Solid
CCC(=O)O.O=C(O)[C@@H]1CCCN1 [Formulation 342]	Solid
CCCCCC(=O)O.O=C(O)[C@@H]1CCCN1 [Formulation 343]	Salid
CCCC(=O)O.O=C(O)[C@@H]1CCCN1 [Formulation 344]	Solid
O=C(O)CCCCC(=O)O.O=C(O)[C@@H]1CCCN1 [Formulation 350]	Solid
O=C(O)CCC(=O)O.O=C(O)[C@@H]1CCCN1 [Formulation 351]	Solid
N[C@@H](CCC(=O)O)C(=O)O.O=C(O)[C@@H]1CCCN1 [Formulation 352]	Solid
O=C(O)/C=C/C(=O)O.O=C(O)[C@@H]1CCCN1 [Formulation 353]	Solid
O=C(O)C(O)C(O)C(=O)O.O=C(O)[C@@H]1CCCN1 (centres unmarked) [Formulation 356]	Solid
O=C(O)[C@@H]1CCCN1.O=C(O)c1ccccc1 [Formulation 357]	Solid
N[C@@H](Cc1ccccc1)C(=O)O.O=CO [Formulation 360]	Solid
CC(=O)O.N[C@@H](Cc1ccccc1)C(=O)O [Formulation 361]	Solid
CCC(=O)O.N[C@@H](Cc1ccccc1)C(=O)O [Formulation 362]	Solid
CCCCCC(=O)O.N[C@@H](Cc1ccccc1)C(=O)O [Formulation 363]	Solid
CCCC(=O)O.N[C@@H](Cc1ccccc1)C(=O)O [Formulation 364]	Solid
N[C@@H](Cc1ccccc1)C(=O)O.O=C(O)[C@H](O)[C@@H](O)[C@H](O)[C@H](O)CO [Formulation 365]	Solid
CC(O)C(=O)O.N[C@@H](Cc1ccccc1)C(=O)O [Formulation 366]	Solid
N[C@@H](Cc1ccccc1)C(=O)O.O=C(O)CCCCC(=O)O [Formulation 367]	Solid
N[C@@H](Cc1ccccc1)C(=O)O.O=C(O)CCC(=O)O [Formulation 368]	Solid
N[C@@H](CCC(=O)O)C(=O)O.N[C@@H](Cc1ccccc1)C(=O)O [Formulation 369]	Solid
N[C@@H](Cc1ccccc1)C(=O)O.O=C(O)/C=C/C(=O)O [Formulation 370]	Solid
N[C@@H](Cc1ccccc1)C(=O)O.O=C(O)C[C@H](O)C(=O)O [Formulation 371]	Salid

SMILES	state at 25° C.
N[C@@H](Cc1ccccc1)C(=O)O.O=C(O)CC(O)(CC(=O)O)C(=O)O [Formulation 372]	Solid
N[C@@H](Cc1ccccc1)C(=O)O.O=C(O)C(O)C(O)C(=O)O [Formulation 373]	Solid
N[C@@H](Cc1ccccc1)C(=O)O.O=C(O)c1ccccc1 [Formulation 374]	Solid
N[C@@H](Cc1ccccc1)C(=O)O.O=C1O[C@H]([C@H](O)CO)C(O)=C1O [Formulation 375]	Solid
N[C@@H](Cc1c[nH]c2ccccc12)C(=O)O.O=CO [Formulation 377]	Solid
CC(=O)O.N[C@@H](Cc1c[nH]c2ccccc12)C(=O)O [Formulation 378]	Solid
CCC(=O)O.N[C@@H](Cc1c[nH]c2ccccc12)C(=O)O [Formulation 379]	Solid
CCCCCC(=O)O.N[C@@H](Cc1c[nH]c2ccccc12)C(=O)O [Formulation 380]	Solid
CCCC(=O)O.N[C@@H](Cc1c[nH]c2ccccc12)C(=O)O [Formulation 381]	Solid
N[C@@H](Cc1c[nH]c2ccccc12)C(=O)O.O=C(O)[C@H](O)[C@@H](O)[C@H](O)[C@H](O)CO [Formulation 382]	Solid
CC(O)C(=O)O.N[C@@H](Cc1c[nH]c2ccccc12)C(=O)O [Formulation 383]	Solid
N[C@@H](Cc1c[nH]c2ccccc12)C(=O)O.O=C(O)CCCCC(=O)O [Formulation 384]	Solid
N[C@@H](Cc1c[nH]c2ccccc12)C(=O)O.O=C(O)CCC(=O)O [Formulation 385]	Solid
N[C@@H](CCC(=O)O)C(=O)O.N[C@@H](Cc1c[nH]c2ccccc12)C(=O)O [Formulation 386]	Solid
N[C@@H](Cc1c[nH]c2ccccc12)C(=O)O.O=C(O)/C=C/C(=O)O [Formulation 387]	Solid
N[C@@H](Cc1c[nH]c2ccccc12)C(=O)O.O=C(O)C[C@H](O)C(=O)O [Formulation 388]	Solid
N[C@@H](Cc1c[nH]c2ccccc12)C(=O)O.O=C(O)CC(O)(CC(=O)O)C(=O)O [Formulation 389]	Solid
N[C@@H](Cc1c[nH]c2ccccc12)C(=O)O.O=C(O)C(O)C(O)C(=O)O [Formulation 390]	Solid
N[C@@H](Cc1c[nH]c2ccccc12)C(=O)O.O=C(O)c1ccccc1 [Formulation 391]	Solid
N[C@@H](Cc1c[nH]c2ccccc12)C(=O)O.O=C1O[C@H]([C@@H](O)CO)C(O)=C1O [Formulation 392]	Solid
N[C@@H](Cc1c[nH]c2ccccc12)C(=O)O.O=C1O[C@H]([C@H](O)CO)C(O)=C1O [Formulation 393]	Solid
N[C@@H](CC(=O)O)C(=O)O.O=CO [Formulation 394]	Solid
CC(=O)O.N[C@@H](CC(=O)O)C(=O)O [Formulation 395]	Solid
CCC(=O)O.N[C@@H](CC(=O)O)C(=O)O [Formulation 396]	Solid
CCCCCC(=O)O.N[C@@H](CC(=O)O)C(=O)O [Formulation 397]	Solid

SMILES	state at 25° C.
CCCC(=O)O.N[C@@H](CC(=O)O)C(=O)O [Formulation 398]	Solid
N[C@@H](CC(=O)O)C(=O)O.O=C(O)[C@H](O)[C@@H](O)[C@H](O)[C@H](O)CO [Formulation 399]	Solid
CC(O)C(=O)O.N[C@@H](CC(=O)O)C(=O)O [Formulation 400]	Solid
N[C@@H](CC(=O)O)C(=O)O.O=C(O)CCCCC(=O)O [Formulation 401]	Solid
N[C@@H](CC(=O)O)C(=O)O.O=C(O)CCC(=O)O [Formulation 402]	Solid
N[C@@H](CC(=O)O)C(=O)O.N[C@@H](CCC(=O)O)C(=O)O [Formulation 403]	Solid
N[C@@H](CC(=O)O)C(=O)O.O=C(O)/C=C/C(=O)O [Formulation 404]	Solid
NC(CC(=O)O)C(=O)O.O=C(O)CC(O)C(=O)O (centres unmarked) [Formulation 405]	Solid
N[C@@H](CC(=O)O)C(=O)O.O=C(O)CC(O)(CC(=O)O)C(=O)O [Formulation 406]	Solid
N[C@@H](CC(=O)O)C(=O)O.O=C(O)C(O)C(O)C(=O)O (centres unmarked) [Formulation 407]	Solid
N[C@@H](CC(=O)O)C(=O)O.O=C(O)c1ccccc1 [Formulation 408]	Solid
N[C@@H](CC(=O)O)C(=O)O.O=C1O[C@H]([C@@H](O)CO)C(O)=C1O [Formulation 409]	Solid
N[C@@H](CC(=O)O)C(=O)O.O=C1O[C@H]([C@H](O)CO)C(O)=C1O [Formulation 410]	Solid
N[C@@H](CCC(=O)O)C(=O)O.O=CO [Formulation 411]	Solid
CC(=O)O.N[C@@H](CCC(=O)O)C(=O)O [Formulation 412]	Solid
CCC(=O)O.N[C@@H](CCC(=O)O)C(=O)O [Formulation 413]	Solid
CCCCCC(=O)O.N[C@@H](CCC(=O)O)C(=O)O [Formulation 414]	Solid
CCCC(=O)O.N[C@@H](CCC(=O)O)C(=O)O [Formulation 415]	Solid
N[C@@H](CCC(=O)O)C(=O)O.O=C(O)C(O)C(O)C(O)C(O)CO (centres unmarked) [Formulation 416]	Solid
CC(O)C(=O)O.N[C@@H](CCC(=O)O)C(=O)O [Formulation 417]	Solid
N[C@@H](CCC(=O)O)C(=O)O.O=C(O)CCCCC(=O)O [Formulation 418]	Solid
N[C@@H](CCC(=O)O)C(=O)O.O=C(O)CCC(=O)O [Formulation 419]	Solid
N[C@@H](CCC(=O)O)C(=O)O.N[C@@H](CCC(=O)O)C(=O)O [Formulation 420]	Solid
N[C@@H](CCC(=O)O)C(=O)O.O=C(O)/C=C/C(=O)O [Formulation 421]	Solid
